According to PMC11512107, “Structural and biochemical analysis of ligand binding in yeast Niemann–Pick type C1–related protein” (Life Science Alliance, 2024):

Assays:
NPC2 = biological target: T1, NPC2 (Saccharomyces cerevisiae, UniProt Q12408); experiment: In vitro liposome crosslinking assay of pac-lipids with NPC2; format: binding; conditions: liposomes with 1.5 mol% pac-lipid (1 μM), 1.5 μM NPC2
T1 construct: residues 1–173, UniProt: Q12408; thrombin cleavage site (C); deca-histidine tag (C, cleaved yes); made in house; host or cells: Saccharomyces cerevisiae strain DSY-5
T1 sequence (Q12408 22-173): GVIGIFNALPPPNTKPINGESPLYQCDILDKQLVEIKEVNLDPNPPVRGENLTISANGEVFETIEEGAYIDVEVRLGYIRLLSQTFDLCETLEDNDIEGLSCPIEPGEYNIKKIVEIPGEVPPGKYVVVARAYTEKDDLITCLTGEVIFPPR
Description: To compare with the interaction profile of the NTD, crosslinking assays were also performed with purified, delipidated NPC2 (Fig S4A and B). […] NPC2 crosslinks well with all tested pac-lipids but, as for the NTD, most strongly with pacChol (+UV/−UV ratio = 1.91). Robust and consistent crosslinking with pacSph (+UV/−UV ratio = 1.64), pacCer (+UV/−UV = 1.67), and pacPC (+UV/−UV = 1.63) were observed. The crosslinking efficiency for cholesterol and sphingosine analogs was higher for the NTD, whereas crosslinking with ceramide and PC analogs seemed stronger with NPC2.
Lipids from stock vials were dissolved in chloroform and mixed at the desired molar ratio. For in vitro crosslinking, most liposomes consisted of 88.5 mol% DOPC as carrier lipid, 10 mol% DOPS, and 1.5 mol% respective pac-lipid. The pac-lipids were incorporated into liposomes at low concentrations (1.5 mol%) to ensure homogenous distribution and avoid micelle formation. The solvent was evaporated in a rotary evaporator (Hei-VAP Core, Heidolph) for 30 min at 42°C at 150 rpm to create a thin lipid film. Lipid films were hydrated with filtered and degassed PBS (137 mM NaCl, 2.7 mM KCl, 10 mM Na2HPO4, 1.8 mM KH2PO4, pH 7.4). Solutions of hydrated lipids (with a total lipid concentration of 2 mM) were subjected to five freeze–thaw cycles in liquid nitrogen and warm water (42°C) to facilitate breakup of large structures and support formation of smaller multilamellar vesicles. Lipid solutions were stored at −20°C. Before use, liposomes were extruded by passing 20x through a 100-nm pore size polycarbonate filter (Nuclepore; Whatman) using a hand extruder (Avanti Polar Lipids). Extruded liposomes were stored at 4°C, protected from light, and used within 1–2 d.
Extruded liposomes were diluted in PBS until a final lipid concentration of 60 μM, including 1 μM pac-lipid. Purified proteins were added until a final concentration of 1.5 μM in a reaction volume of 100 μl. Protein–liposome mixtures were incubated in 0.5-ml Eppendorf tubes for 30 min at 37°C at 400 rpm (Comfort thermomixer, Eppendorf), then crosslinked (or not) by exposure to 365-nm UV light for 15 min at 4°C using a 100-W mercury lamp (Blak-Ray B-100AP). After crosslinking, the click reaction was performed by adding 0.7 μl of freshly prepared click mix into the sample tubes. The final concentrations of click reagents in sample tubes were 80 μM CuSO4 (Merck), 3 μM TBTA (Merck), 3 μM AF647-picolyl azide (Jena Bioscience), and 80 μM ascorbic acid (Merck). Fresh stock of ascorbic acid solution in water was prepared every time and added to the click mix immediately before starting the click reaction. Click reactions were allowed to proceed for 2 h at 37°C at 400 rpm with the thermomixer. Then, samples were concentrated in a vacuum evaporator for 30 min set to 30°C and supplemented with 4x Lämmli buffer (250 mM Tris, pH 6.8, 9.2% SDS, 40% glycerol, 0.2% bromophenol blue, 100 mM DTT). Samples were boiled for 5 min at 95°C, and clicked protein–lipid complexes were resolved by SDS–PAGE. After extensive destaining in a destain solution (65% water, 25% isopropanol, and 10% acetic acid), the AF647 (a structural analog of Alexa Fluor 647) and Coomassie images were acquired using the LI-COR Odyssey imaging system. Data were evaluated by subtracting background fluorescence, followed by comparing the AF647 signal between crosslinked and non-crosslinked samples, normalized to protein loading based on Coomassie staining. The resulting values are described as +UV/−UV ratios. Statistics were calculated with the Mann–Whitney U test.

NTD of NCR1 = biological target: T2, NTD of NCR1 (Saccharomyces cerevisiae, UniProt Q12200); experiment: In vitro liposome crosslinking assay of pac-lipids with the NTD; format: binding; conditions: liposomes with 1.5 mol% pac-lipid (1 μM), 1.5 μM NTD, average ratio
T2 construct: residues 1–249, UniProt: Q12200; thrombin cleavage site (C); deca-histidine tag (C, cleaved yes); made in house; host or cells: Saccharomyces cerevisiae strain DSY-5
T2 sequence (Q12200 20-249): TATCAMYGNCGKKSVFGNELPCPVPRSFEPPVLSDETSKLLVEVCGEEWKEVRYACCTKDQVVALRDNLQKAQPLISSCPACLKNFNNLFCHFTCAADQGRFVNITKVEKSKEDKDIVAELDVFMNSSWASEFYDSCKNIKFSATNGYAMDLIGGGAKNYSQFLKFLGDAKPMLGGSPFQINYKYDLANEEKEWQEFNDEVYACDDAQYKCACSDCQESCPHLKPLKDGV
Source text: In a parallel approach, the substrate scope of the NTD and NPC2 was probed with photo-activatable and clickable (pac) lipids. Pac-lipids contain small chemical modifications for click chemistry reactions, with fluorophores such as AF647 (a structural analog of Alexa Fluor 647), and for UV-activated photo-crosslinking, respectively ([45]). In contrast to NBD-tagged lipids delivered in solution, pac-lipids such as pac-cholesterol (pacChol), pac-phosphatidylcholine (pacPC), pac-sphingosine (pacSph), and pac-ceramide (pacCer) were reconstituted in liposomal membranes (Fig 5A and B). As expected, the delipidated NTD crosslinks with pacChol (average +UV/−UV ratio = 2.11). Crosslinking of the NTD with pacSph (+UV/−UV = 1.73) and, to a lesser extent, with pacCer and pacPC (+UV/−UV = 1.40 and 1.12), respectively, was also detected (Fig 5C and D).
Lipids from stock vials were dissolved in chloroform and mixed at the desired molar ratio. […]
Extruded liposomes were diluted in PBS until a final lipid concentration of 60 μM, including 1 μM pac-lipid. […] Data were evaluated by subtracting background fluorescence, followed by comparing the AF647 signal between crosslinked and non-crosslinked samples, normalized to protein loading based on Coomassie staining. […] Statistics were calculated with the Mann–Whitney U test.

NPC2 to the NTD = biological target: T3, NPC2 to the NTD (Saccharomyces cerevisiae, UniProt Q12200); experiment: In vitro pac-lipid transfer assay from NPC2 to the NTD; format: biochemical; conditions: His-tagged NPC2 preloaded with soluble pac-lipid; GFP baseline, STARD3 negative control
T3 construct: residues 1–249, UniProt: Q12200; residues 1–173, UniProt: Q12408; deca-histidine tag (C, cleaved yes); made in house; host or cells: Saccharomyces cerevisiae strain DSY-5
T3 sequence (Q12200 20-249): as above
Source text: The consistent interaction of sphingosine with both the NTD and NPC2 observed in this study inspired us to examine whether the transfer of pacSph between the two proteins could be reconstituted in vitro. To this end, a protein-to-protein sphingosine transfer assay using solubilized, free pacSph was designed (Fig 6A). […] As a control for specificity of transfer, the lipid binding domain of a mammalian STARD3 (His-STARD3-StART) was used because this protein was previously shown to interact with sphingosine in related work ([51] Preprint), but it is not located inside lysosomes and, therefore, is not expected to interact with the NTD. His-tagged NPC2, His-sfGFP, or His-STARD3-StART were immobilized on NiNTA beads, preloaded with pacSph, and incubated with the NTD. After removal of the beads, the NTD was subjected to UV crosslinking and clicked with a fluorophore, and the resulting lipid–protein complexes were visualized by SDS–PAGE.
Purified His-tagged proteins (5 μM of sfGFP, STARD3, or NPC2) were incubated with 10 μM pacSph in PBS for 60 min at 25°C at 500 rpm (Comfort thermomixer, Eppendorf). Next, the His-tagged proteins were captured on NiNTA beads and washed 5x with PBS to remove unbound pacSph. […] For data analysis, the background was subtracted and the +UV/−UV ratios were quantified for each sample as described previously. […] Statistics were calculated with the Mann–Whitney U test.

With `C#CCCCC1(CCCCCCCC/C=C/[C@H](O)[C@H](N)CO)N=N1` [pacSph] as the compound, how does the “+UV/−UV ratio (crosslinking with NPC2)” value (NPC2) read?
The value was 1.64.

And the “+UV/−UV ratio (crosslinking with NTD)” value (NTD of NCR1)?
Its value is 1.73.

What about the “transfer of pac-lipid from NPC2 to the NTD (crosslinking with NTD)” value (NPC2 to the NTD) of the same compound?
Its value is “increased crosslinking”.
